Data as given in patent US4861774A, “Method of treating tumors using tetracyclo compounds” (priority 1984, dated 1989).
Values after ≈ are worked out from the molar mass of the structure shown.

How the values were obtained:
[1] = system: mouse lymphocytic leukemia P388 tumor cells; assay: in vitro cytotoxicity, P388 tumor cells, 72 hours (Test 4); assay type: cell-based; details: 50% inhibition of cell growth, 37° C.
Experimental: A suspension of mouse lymphocytic leukemia P388 tumor cells was prepared from a diluted ascitic fluid using Hanks' solution after 7 days of tumor implantation, and centrifuged at 1000 rpm for 15 minutes at cold temperature. The cells were adjusted at a concentration of 2.5×10^6 cell/ml in MEM Dulbecco medium supplemented with 10% foetal bovine serum, penicillin G (60 μg/ml) and streptomycin (20 μg/ml). Then, cells were treated with the graded doses of the test compounds in plastic tissue culture dishes at 37° C. and incubated for 72 hours in humidified atmosphere of 5% carbon dioxide. Concentration of the substance required for 50% inhibition of cell growth (IC50 value) (μg/ml) was determined by plotting the logarithms of the drug concentration versus the growth rate (percentage of control) of the treated cells.

Human LX-1 lung = Human LX-1 lung tumor in nude mice (Test 9); assay type: in vivo, human (in BALB/c nu/nu mice); details: 5.6 mg/kg i.v., days 10, 14 & 17; evaluation day 21
Experimental: (§1) Human LX-1 lung or MX-1 mammary (each fragment, 2×2×2 mm), maintained s.c. by serial passage in male BALB/c nu/nu mice, was implanted s.c. to male BALB/c nu/nu mice on day 0, and the test compounds or vehicle were given i.v. to the mice once a day on specified days in Table 9.
(§2) Tumor weight was calculated as follows: (Tumor length and width were measured by caliper.)
(§3) Tumor weight (mg)=1/2×a×b^2, where a represents length and b represents width (mm).
(§4) Tumor weights (initial) and (last) were calculated on the first injection day (just before dosing) and on day 21, 27 or 28 (the last evaluation day), respectively.
(§5) Five mice were used for each test group and 5 or 10 mice were used for each vehicle-treated control group.
(§6) Drug efficacy was expressed as percentage of mean tumor weight of the test group to that of the control group. [formula]

B16 Melanoma [2] = assay: B16 Melanoma in mice (Test 5); assay type: in vivo, mice (BDF1); details: 3.2 mg/kg i.p., days 1-9; in physiological saline
Experimental: (§7) B16 Melanoma (1:10 brei, 0.5 ml), maintained s.c. by serial passage in female C57BL/6 mice, was implanted i.p. to female BDF1 mice on day 0, and the test compounds or vehicle were given i.p. to the mice once a day on days 1-9.
(§8) Ten mice were used for each test group, and twenty mice were used for each vehicle-treated control group.
(§9) Drug efficacy against the ascitic tumors is expressed as percentage of the median (mean) survival time of the test group to that of the control group. [formula] .circle.2 Results

L1210 Leukemia [3] = assay: L1210 Leukemia ascitic tumor in mice (Test 5); assay type: in vivo, mice (BDF1 or CDF1); details: 10.0 mg/kg i.p., days 1-9, CDF1 mice; in physiological saline
Source text: L1210 Leukemia (1×10^5 cells), maintained i.p. by serial passage in female DBA/2 mice, was implanted i.p. to female BDF1 or CDF1 mice on day 0, and the test compounds or vehicle were given i.p. to the mice once a day on days 1-9.
as §8, §9

Human MX-1 mammary = Human MX-1 mammary tumor in nude mice (Test 9); assay type: in vivo, human (in BALB/c nu/nu mice); details: 32. mg/kg (so in the source) i.v., days 10, 14 & 17; evaluation day 21
Experimental: as §1, §2, §3, §4, §5, §6

Colon 38 carcinoma = assay: in vivo murine solid tumor model, Colon 38 carcinoma (Test 7); design: species or system mice; details: 10.0 mg/kg i.v., days 1, 4, 7 and 10; tumor weight on day 21
Experimental: Colon 38 carcinoma (fragment, 2×2×2 mm), maintained s.c. by serial passage in female C57BL/6 mice, was implanted s.c. to female BDFhd 1 mice on day 0, and the test compounds or vehicle were given i.v. to the mice once a day on days 1, 4, 7 and 10. Tumor weight was measured on day 21.
as §2, §3
Ten mice were used for each test group or vehicle-treated control group.
Drug efficacy against the solid tumor is expressed as percentage of the mean tumor weight of the test group to that of the control group. [formula]

B16 Melanoma [4] = assay: B16 Melanoma in mice, graded doses (Test 11); assay type: in vivo, mice (BDF1); details: days 1-9
Experimental: as §7, §8
(§10) Compound R (which was dissolved in 10% polyoxyethylated (60 mol) hydrogenated castor oil in physiological saline solution)
(§11) Drug efficacy against the ascitic tumors is expressed as percentage of the median (mean) survival time of the test group to that of the control group. [formula]

L1210 Leukemia [5] = assay: L1210 Leukemia in mice, graded doses (Test 11); assay type: in vivo, mice (CDF1); details: days 1-9
Experimental: L1210 Leukemia (1×10^5 cells), maintained i.p. by serial passage in female DBA/2 mice, was implanted i.p. to female CDF1 mice on day 0, and the test compounds or vehicle were given i.p. to the mice once a day on days 1-9.
as §8, §10, §11

Question: For `CC(=O)OCc1cc(OC(C)=O)c2c(c1)N1CC3C(N3C(C)=O)C(OC(C)=O)(O1)C2COC(N)=O` (stereo not drawn) [Compound U, 4-Acetoxymethyl-11-acetyl-8-carbamoyloxymethyl-14-oxa-1,11-diazatetracyclo[7.4.1.0^2,7.0^10,12]tetradeca-2,4,6-trien-6,9-diyl diacetate], which IC50 [1] is on record?
Answer: 0.01 to 0.02 µg/mL

Question: With `COc1cc(C=O)cc2c1C(COC(N)=O)C1(OC(C)=O)ON2CC2C1N2C(C)=O` (stereo not drawn) [Compound V, 11-Acetyl-8-carbamoyloxymethyl-4-formyl-6-methoxy-14-oxa-1,11-diazatetracyclo[7.4.1.0^2,7.0^10,12]tetradeca-2,4,6-trien-9-yl acetate] as the molecule, how does the IC50 [1] read?
Answer: 0.02 µg/mL

Question: With `COc1cc(C=O)cc2c1C(COC(N)=O)C1(O)ON2CC2C1N2C(C)=O` (stereo not drawn) [Compound W, 11-Acetyl-4-formyl-9-hydroxy-6-methoxy-14-oxa-1,11-diazatetracyclo[7.4.1.0^2,7.0^10,12]tetradeca-2,4,6-trien-8-ylmethyl carbamate] as the molecule, how does the IC50 [1] read?
Answer: 0.01 µg/mL (≈ 0.0265 µM)

Question: What does the source list for `CC(=O)Oc1cc(C=O)cc2c1C(COC(N)=O)C1(OC(C)=O)ON2CC2C1N2C(C)=O` (stereo not drawn) [Compound R, 11-Acetyl-4-formyl-8-carbamoyloxymethyl-14-oxa-1,11-diazatetracyclo[7.4.1.0^2,7.0^10,12]tetradeca-2,4,6-trien-6,9-diyl diacetate]?
Answer: 1-T"/C" (Human LX-1 lung): 90%; Solubility (Solubility; acetone): Soluble; Solubility (Solubility; chloroform): Soluble; Solubility (Solubility; methanol): Soluble; Solubility (Solubility; water): Insoluble; IC50 [1]: 0.05 µg/mL; T/C (B16 Melanoma [2]): > 316%; T/C (L1210 Leukemia [3]): 197%; 1-T"/C" (Human MX-1 mammary): 99%; 1-T'/C' (Colon 38 carcinoma): 100%; T/C (B16 Melanoma [4]; 0.0032 mg/kg i.p.): 106%; T/C (B16 Melanoma [4]; 0.01 mg/kg i.p.): 122%; T/C (B16 Melanoma [4]; 0.032 mg/kg i.p.): 166%; T/C (B16 Melanoma [4]; 0.1 mg/kg i.p.): 219%; T/C (B16 Melanoma [4]; 0.32 mg/kg i.p.): 213%; T/C (B16 Melanoma [4]; 0.56 mg/kg i.p.): > 291%; T/C (B16 Melanoma [4]; 1.0 mg/kg i.p.): > 375%; T/C (B16 Melanoma [4]; 1.8 mg/kg i.p.): > 375%; T/C (B16 Melanoma [4]; 3.2 mg/kg i.p.): 225%; T/C (B16 Melanoma [4]; 5.6 mg/kg i.p.): 134%; T/C (B16 Melanoma [4]; 10 mg/kg i.p.): 66%; T/C (L1210 Leukemia [5]; 0.1 mg/kg i.p.): 125%; T/C (L1210 Leukemia [5]; 0.32 mg/kg i.p.): 131%; T/C (L1210 Leukemia [5]; 1.0 mg/kg i.p.): 156%; T/C (L1210 Leukemia [5]; 3.2 mg/kg i.p.): 150%; T/C (L1210 Leukemia [5]; 5.6 mg/kg i.p.): 163%; T/C (L1210 Leukemia [5]; 10 mg/kg i.p.): 106%; T/C (L1210 Leukemia [5]; 18 mg/kg i.p.): 88%

Question: With `CC(=O)OCc1cc(OC(C)=O)c2c(c1)N1CC3C(N3C(C)=O)C(O)(O1)C2COC(N)=O` (stereo not drawn) [Compound T, 11-Acetyl-4-acetoxymethyl-8-carbamoyloxymethyl-9-hydroxy-14-oxa-1,11-diazatetracyclo[7.4.1.0^2,7.0^10,12]tetradeca-2,4,6-trien-6-yl acetate] as the molecule, how does the IC50 [1] read?
Answer: 0.02 µg/mL

Question: Which IC50 [1] does the source give for `C=C1c2c(OC(C)=O)cc(C=O)cc2N2CC3C(N3C(C)=O)C1(O)O2` (stereo not drawn) [Compound S, 11-Acetyl-4-formyl-9-hydroxy-8-methylene-14-oxa-1,11-diazatetracyclo[7.4.1.0^2,7.0^10,12]tetradeca-2,4,6-trien-6-yl acetate] here?
Answer: 0.02 µg/mL
